Experimental data published in PubChem BioAssay (NCI).
“And” between values parts separate entries of the source, which are not always exact repeats. Equal values may be shown once.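 Each compound was tested at five concentrations against cells in 96-well plates for 48 hours. GI50 is the concentration that inhibits growth by half. The concentration for full growth arrest is given as TGI.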

What was measured:
Test in all cases: NCI-60 cell line screen, 48 h
ACHN renal = test system: ACHN renal
CAKI-1 renal = test system: CAKI-1 renal
CCRF-CEM leukemia = test system: CCRF-CEM leukemia
HT29 colon = test system: HT29 colon
K-562 leukemia = test system: K-562 leukemia
M14 melanoma = test system: M14 melanoma
MALME-3M melanoma = test system: MALME-3M melanoma
MCF7 breast = test system: MCF7 breast
MOLT-4 leukemia = test system: MOLT-4 leukemia
TK-10 renal = test system: TK-10 renal

Row | Compound | TGI (ACHN renal) [µM] | TGI (CAKI-1 renal) | TGI (CCRF-CEM leukemia) [µM] | TGI (HT29 colon) [µM] | TGI (K-562 leukemia) [µM] | TGI (M14 melanoma) | TGI (MALME-3M melanoma) | TGI (MCF7 breast) [µM] | TGI (MOLT-4 leukemia) | TGI (TK-10 renal) | GI50 (ACHN renal) | GI50 (CAKI-1 renal) | GI50 (CCRF-CEM leukemia) | GI50 (HT29 colon) | GI50 (K-562 leukemia) | GI50 (M14 melanoma) | GI50 (MALME-3M melanoma) | GI50 (MCF7 breast) | GI50 (MOLT-4 leukemia) | GI50 (TK-10 renal)
1 | COc1cc(OC)c(OC)cc1/C=C\c1ccnc2ccccc12 | > 100 | > 79.5 µM | 67.8 | 16.1 | 31.3 | 38.9 µM | > 100 µM | > 100 | > 90.2 µM | 31.4 µM |  |  |  |  |  |  |  |  |  | 
2 | CSc1ccc2c(c1)N(CCCN(C)C)c1ccccc1S2 | 24.1 | 21.2 µM | 23.4 | 21.1 | 17 | 17.8 µM | 22 µM | 26.1 | 20 µM | 28.3 µM |  |  |  |  |  |  |  |  |  | 
3 | Cc1nc(Nc2ccc(Cl)c(Cl)c2)sc1C(/C=C/c1ccc2c(c1)OCO2)=N/Nc1ccc([N+](=O)[O-])cc1[N+](=O)[O-] | > 100 | > 46.4 µM | > 100 | > 100 | > 100 | > 100 µM | > 100 µM | > 100 | > 56.2 µM | > 94.4 µM |  |  |  |  |  |  |  |  |  | 
4 | Clc1cc(Cl)cc(Nc2ccc3c(OCCCN4CCOCC4)cccc3n2)c1 | 10.3 | 22.9 µM | 6.36 | 3.39 | 5.71 | 4 µM | 6.33 µM | 3.48 | 5.61 µM | 5 µM | 3.02 µM | 7.59 µM | 2.36 µM | 1.76 µM | 2.21 µM | 1.86 µM | 2.5 µM | 1.74 µM | 2.25 µM | 2.38 µM
5 | CC(=O)Nc1ccc2c(c1)[nH]c(=O)c1cc(Cl)ccc12 | > 100 | 8.4 µM | 13.4 | 41.5 | > 100 | > 100 µM | 46.7 µM | 77.7 | 8.53 µM | 60.4 µM |  |  |  |  |  |  |  |  |  | 
6 | COc1ccccc1CNCCCN1C(=O)c2ccc3c4c(ccc(c24)C1=O)C(=O)N(CCCNCCCCN)C3=O | 11.1 | > 42.4 µM | 3.28 | 0.695 | 1.27 | 1.15 µM | 0.327 µM | 0.555 | 1.26 µM | 4.63 µM | 0.576 µM | 3.31 µM | 0.304 µM | 0.206 µM | 0.298 µM | 0.355 µM | 0.176 µM | 0.202 µM | 0.324 µM | 0.976 µM
7 | COc1ccc(-c2nc3sccn3c2/C=C/C(=O)c2cc(OC)c(OC)c(OC)c2)cc1 | > 60.9 | > 100 µM | 53.1 | 11.8 | > 23.9 | > 27.6 µM | > 100 µM | > 100 | 23.7 µM | > 100 µM | 3.45 µM | 2.02 µM | 3.4 µM | 3.22 µM | 2.43 µM | 2.52 µM | 4.39 µM | 1.85 µM | 2.24 µM | 5 µM
8 | CC(C)(C)c1cnc(CSc2cnc(NC(=O)C3CCNCC3)s2)o1 | > 52.1 | 32.7 µM and > 10 µM | > 100 |  | > 53.2 | 2.87 µM and 2.61 µM | 0.511 µM and 0.907 µM | > 53.3 | 17.3 µM and > 2.99 µM | 5.23 µM and > 10 µM | 2.12 µM and 2.14 µM | 3.89 µM and > 3 µM | 0.251 µM and 0.168 µM | 0.181 µM and 0.182 µM | 0.337 µM and 0.229 µM | 0.441 µM and 0.564 µM | 0.229 µM and 0.286 µM | 0.0522 µM and 0.0505 µM | 0.351 µM and 0.248 µM | 0.62 µM and 0.794 µM
9 | c1ccc(-c2nc3ccccc3[nH]2)c(OCCCCCOc2ccccc2-c2nc3ccccc3[nH]2)c1 | 26.9 | 29.9 µM | 29.8 | 44.1 | > 100 | 44.1 µM | 44 µM | 7.51 | 47.5 µM | 30.8 µM | 13.1 µM | 12.5 µM | 4.14 µM | 12.1 µM | 4.35 µM | 13.4 µM | 12.3 µM | 2.3 µM | 5.58 µM | 13 µM
